Results: PubChem BioAssay AID1963985 (Molecular Pharmacology Branch, DTP, NCI, 2024)

Tested on: 252836-082-R-J2-PDC tumor spheroids, viability
Experiment: Anticancer human tumor 252836-082-R-J2-PDC patient-derived head and neck squamous cell carcinoma cell line growth inhibition [PI3K]
Conditions: spheroids with HUVEC and MSC; for IC50: curve of first compound; for viability, T/C: stronger effect = lower value
Summary of the method: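 Multi-cell spheroids combine tumor cells with HUVEC and human MSCs, treated with targeted agents alone or with inavolisib, alpelisib, duvelisib or copanlisib. Concentrations fall in half-log steps from at or near clinical Cmax, or from 10 microM where Cmax is unknown; viability read-out.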

[1] = second compound 0.00316 µM, first compound 0.0316 µM
[2] = second compound 0.00316 µM, first compound 0.1 µM
[3] = second compound 0.00316 µM, first compound 0.316 µM
[4] = second compound 0.00316 µM, first compound 1 µM
[5] = second compound 0.00316 µM, first compound 3.16 µM
[6] = second compound 0.00316 µM, first compound 10 µM
[7] = second compound 0.01 µM, first compound 0.0316 µM
[8] = second compound 0.01 µM, first compound 0.1 µM
[9] = second compound 0.01 µM, first compound 0.316 µM
[10] = second compound 0.01 µM, first compound 1 µM
[11] = second compound 0.01 µM, first compound 3.16 µM
[12] = second compound 0.01 µM, first compound 10 µM
[13] = second compound 0.0316 µM, first compound 0.0316 µM
[14] = second compound 0.0316 µM, first compound 0.1 µM
[15] = second compound 0.0316 µM, first compound 0.316 µM
[16] = second compound 0.0316 µM, first compound 1 µM
[17] = second compound 0.0316 µM, first compound 3.16 µM
[18] = second compound 0.0316 µM, first compound 10 µM
[19] = second compound 0.1 µM, first compound 0.0316 µM
[20] = second compound 0.1 µM, first compound 0.1 µM
[21] = second compound 0.1 µM, first compound 0.316 µM
[22] = second compound 0.1 µM, first compound 1 µM
[23] = second compound 0.1 µM, first compound 3.16 µM
[24] = second compound 0.1 µM, first compound 10 µM
[25] = second compound 0.316 µM, first compound 0.0316 µM
[26] = second compound 0.316 µM, first compound 0.1 µM
[27] = second compound 0.316 µM, first compound 0.316 µM
[28] = second compound 0.316 µM, first compound 1 µM
[29] = second compound 0.316 µM, first compound 3.16 µM
[30] = second compound 0.316 µM, first compound 10 µM
[31] = second compound 1 µM, first compound 0.0316 µM
[32] = second compound 1 µM, first compound 0.1 µM
[33] = second compound 1 µM, first compound 0.316 µM
[34] = second compound 1 µM, first compound 1 µM
[35] = second compound 1 µM, first compound 3.16 µM
[36] = second compound 1 µM, first compound 10 µM
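Further: spheroids exposed to agents for seven days before readout.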
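Wherever viability, T/C is given: percent of vehicle DMSO control viability so 100% = untreated growth.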

SMILES: C=CC(=O)N1CCN(c2nc(=O)n(-c3c(C)ccnc3C(C)C)c3nc(-c4c(O)cccc4F)c(F)cc23)C(C)C1 (stereo unspecified) + COc1c(OCCCN2CCOCC2)ccc2c3n(c(=NC(=O)c4cnc(N)nc4)nc12)CCN3
- IC50 (second compound 0.00316 µM): > 10 µM
- IC50 (second compound 0.01 µM): > 10 µM
- IC50 (second compound 0.0316 µM): > 10 µM
- IC50 (second compound 0.1 µM): < 0.0316 µM
- IC50 (second compound 0.316 µM): < 0.0316 µM
- IC50 (second compound 1 µM): < 0.0316 µM
- viability, T/C [1]: 92.7%
- viability, T/C [2]: 94.5%
- viability, T/C [3]: 96.1%
- viability, T/C [4]: 99.7%
- viability, T/C [5]: 118%
- viability, T/C [6]: 94.9%
- viability, T/C [7]: 74.4%
- viability, T/C [8]: 73.8%
- viability, T/C [9]: 89.2%
- viability, T/C [10]: 88.7%
- viability, T/C [11]: 98.2%
- viability, T/C [12]: 82.2%
- viability, T/C [13]: 63%
- viability, T/C [14]: 56.9%
- viability, T/C [15]: 55.3%
- viability, T/C [16]: 75.8%
- viability, T/C [17]: 77.4%
- viability, T/C [18]: 73.3%
- viability, T/C [19]: 36%
- viability, T/C [20]: 34.6%
- viability, T/C [21]: 34.9%
- viability, T/C [22]: 45.1%
- viability, T/C [23]: 45.1%
- viability, T/C [24]: 42.8%
- viability, T/C [25]: 19.2%
- viability, T/C [26]: 17.3%
- viability, T/C [27]: 22.8%
- viability, T/C [28]: 17.3%
- viability, T/C [29]: 20.8%
- viability, T/C [30]: 15.9%
- viability, T/C [31]: 5.1%
- viability, T/C [32]: 5.86%
- viability, T/C [33]: 5.59%
- viability, T/C [34]: 5.93%
- viability, T/C [35]: 7.35%
- viability, T/C [36]: 3.61%

SMILES: CC(Cn1ccc(-c2ccc(C#N)c(Cl)c2)n1)NC(=O)c1cc(C(C)O)[nH]n1 (stereo unspecified) + COc1c(OCCCN2CCOCC2)ccc2c3n(c(=NC(=O)c4cnc(N)nc4)nc12)CCN3
- IC50 (second compound 0.00316 µM): > 10 µM
- IC50 (second compound 0.01 µM): > 10 µM
- IC50 (second compound 0.0316 µM): > 10 µM
- IC50 (second compound 0.1 µM): < 0.0316 µM
- IC50 (second compound 0.316 µM): < 0.0316 µM
- IC50 (second compound 1 µM): < 0.0316 µM
- viability, T/C [1]: 102%
- viability, T/C [2]: 90.5%
- viability, T/C [3]: 101%
- viability, T/C [4]: 94.4%
- viability, T/C [5]: 91.4%
- viability, T/C [6]: 84.9%
- viability, T/C [7]: 81.7%
- viability, T/C [8]: 72.4%
- viability, T/C [9]: 87.2%
- viability, T/C [10]: 93.3%
- viability, T/C [11]: 93%
- viability, T/C [12]: 68.9%
- viability, T/C [13]: 65.3%
- viability, T/C [14]: 62.8%
- viability, T/C [15]: 62.6%
- viability, T/C [16]: 63.9%
- viability, T/C [17]: 68.3%
- viability, T/C [18]: 56.1%
- viability, T/C [19]: 35.3%
- viability, T/C [20]: 43.5%
- viability, T/C [21]: 36.6%
- viability, T/C [22]: 45.3%
- viability, T/C [23]: 35.6%
- viability, T/C [24]: 41.4%
- viability, T/C [25]: 15.6%
- viability, T/C [26]: 15.8%
- viability, T/C [27]: 18.3%
- viability, T/C [28]: 20.3%
- viability, T/C [29]: 16.3%
- viability, T/C [30]: 16.5%
- viability, T/C [31]: 5.58%
- viability, T/C [32]: 5.76%
- viability, T/C [33]: 4.24%
- viability, T/C [34]: 4.31%
- viability, T/C [35]: 6.92%
- viability, T/C [36]: 5.37%

SMILES: Cn1nccc1Nc1nccc(-c2ccn(C(CO)c3ccc(Cl)c(F)c3)c(=O)c2)n1 (stereo unspecified) + COc1c(OCCCN2CCOCC2)ccc2c3n(c(=NC(=O)c4cnc(N)nc4)nc12)CCN3
- IC50 (second compound 0.00316 µM): > 10 µM
- IC50 (second compound 0.01 µM): > 10 µM
- IC50 (second compound 0.0316 µM): 4.37 µM
- IC50 (second compound 0.1 µM): < 0.0316 µM
- IC50 (second compound 0.316 µM): < 0.0316 µM
- IC50 (second compound 1 µM): < 0.0316 µM
- viability, T/C [1]: 99.2%
- viability, T/C [2]: 86.3%
- viability, T/C [3]: 98%
- viability, T/C [4]: 90%
- viability, T/C [5]: 78.3%
- viability, T/C [6]: 70.3%
- viability, T/C [7]: 77.4%
- viability, T/C [8]: 78.3%
- viability, T/C [9]: 81.7%
- viability, T/C [10]: 79.1%
- viability, T/C [11]: 75.8%
- viability, T/C [12]: 50.2%
- viability, T/C [13]: 53%
- viability, T/C [14]: 65.4%
- viability, T/C [15]: 56.3%
- viability, T/C [16]: 56.8%
- viability, T/C [17]: 57.8%
- viability, T/C [18]: 31.1%
- viability, T/C [19]: 40.4%
- viability, T/C [20]: 33.8%
- viability, T/C [21]: 38.5%
- viability, T/C [22]: 34.8%
- viability, T/C [23]: 31.9%
- viability, T/C [24]: 19.5%
- viability, T/C [25]: 15.8%
- viability, T/C [26]: 14.1%
- viability, T/C [27]: 15.3%
- viability, T/C [28]: 10.4%
- viability, T/C [29]: 7.12%
- viability, T/C [30]: 4.49%
- viability, T/C [31]: 4.18%
- viability, T/C [32]: 4.13%
- viability, T/C [33]: 3.93%
- viability, T/C [34]: 1.52%
- viability, T/C [35]: 1.98%
- viability, T/C [36]: 0.32%
